The values that follow come from US7632841B2, “2-N{5-[[4-[2-(methyl-2-pyridinylamino) ethoxy] phenyl]methyl]-2,4-thiazolidinedione} butanedioic acid, methods of preparation and compositions with rosiglitazone maleate” (Teva Pharmaceutical Industries, Ltd., priority 2006, dated 2009).

The data set in a line: Compatibility study: rosiglitazone maleate mixed with excipients/metformin and water, formation of Compound 1. The data set is classed as physicochemical. The conditions noted are these: rosiglitazone maleate mixed with the named excipient in proportions of 500 mg/4 mg tablets, 0.5 ml water added, 65° C. for 4 days. As for the experimental part: Rosiglitazone maleate was mixed with various excipients and with metformin in the same proportions as present in the 500 mg/4 mg (base strength) metformin/rosiglitazone maleate tablets. 0.5 ml of water was added to each mixture, and the samples were kept at 65° C. for 4 days. The amount of Compound 1 was determined in each of the samples using the method in Example 4. The peaks were measured and the area percent (area of Compound 1 peak/area of all rosiglitazone related peaks) of the Compound 1 peak is listed below.
Placebo mix A refers to a mixture of excipients as indicated in Example 5a, with the exception of rosiglitazone maleate.
Placebo mix B refers to a mixture of excipients as indicated in Example 5b, with the exception of rosiglitazone maleate.

Each structure is given as a SMILES string.

On to `CN(CCOc1ccc(CC2SC(=O)NC2=O)cc1)c1ccccn1.O=C(O)/C=C\C(=O)O` (racemic) [Rosiglitazone Maleate (alone), (±)-5-[[4-[2-(methyl-2-pyridinylamino)ethoxy]phenyl]methyl]-2,4-thiazolidinedione, (Z)-2-butenedioate (1:1)], for which the “Area Percent of Compound 1 peak (area of Compound 1 peak/area of all rosiglitazone related peaks)” value is listed as 0.9 Area Percent.
